In publication PMC9814781, “Structure-based design of a dual-warhead covalent inhibitor of FGFR4” (Communications Chemistry, 2022):

Tests used:
FMS (CSF1R) = FMS (CSF1R) (Homo sapiens, UniProt P07333); assay: Kinase selectivity profiling
AurA = AurA (Homo sapiens, UniProt O14965); assay: Kinase selectivity profiling
SYK = SYK (Homo sapiens, UniProt P43405); assay: Kinase selectivity profiling
RSK3 = RSK3 (Homo sapiens, UniProt Q15349); assay: Kinase selectivity profiling
HIPK4 = HIPK4 (Homo sapiens, UniProt Q8NE63); assay: Kinase selectivity profiling
EPHA1 = EPHA1 (Homo sapiens, UniProt P21709); assay: Kinase selectivity profiling
TYRO3 = TYRO3 (Homo sapiens, UniProt Q06418); assay: Kinase selectivity profiling
Her4(ERBB4) = Her4(ERBB4) (Homo sapiens, UniProt Q15303); assay: Kinase selectivity profiling
DYRK1B = DYRK1B (Homo sapiens, UniProt Q9Y463); assay: Kinase selectivity profiling
FGFR2 = FGFR2 (Homo sapiens, UniProt P21802); assay: Kinase selectivity profiling
CLK3 = CLK3 (Homo sapiens, UniProt P49761); assay: Kinase selectivity profiling
BRAF = BRAF (Homo sapiens, UniProt P15056); assay: Kinase selectivity profiling
IGF1R = IGF1R (Homo sapiens, UniProt P08069); assay: Kinase selectivity profiling
LYNa = LYNa (Homo sapiens, UniProt P07948); assay: Kinase selectivity profiling
HCK = HCK (Homo sapiens, UniProt P08631); assay: Kinase selectivity profiling
TNIK = TNIK (Homo sapiens, UniProt Q9UKE5); assay: Kinase selectivity profiling
FGFR1 = FGFR1 (Homo sapiens, UniProt P11362); assay: Kinase inhibition assay (ADP-Glo); assay type: biochemical; parameters: human FGFR1 (residues 456–765); 6xHis + PreScission site (N, cleaved yes); made in house; host or cells: Escherichia coli Rosseta
Protocol: Wild-type FGFRs and mutant FGFRs were prepared as previously described[25]–[27]. In brief, the kinase domains of human FGFR1 (residues 456–765), FGFR2 (residues 453–770), FGFR3 (residues 450–758), and FGFR4 (residues 445–753) were cloned into a modified pET28a expression vector and then transfected into Escherichia coli Rosseta cells. The N-terminal of the recombinant proteins were contained a 6xHis tag followed by a PreScission cleavage site for FGFR1, FGFR2, FGFR3, and FGFR4. Site-directed mutagenesis of FGFR4 was generated according to the ClonExpress II One Step Cloning Kit (Vazyme) using the pET28a-FGFR4 plasmid as the template. These mutants were confirmed by DNA sequencing (Tsingke, Changsha, China). For crystallization experiments, the wild-type FGFR4 plasmid was co-expressed with untagged YOPH to obtain non-phosphorylated proteins. The proteins were first purified by Ni-NTA affinity chromatography. […]
All kinase inhibition assays were performed with optimized kinase assay buffer consisting of 40 mM Tris-HCl pH 7.5, 20 mM MgCl2, 20 mM NaCl, 0.1 mg/mL BSA, 1 mM TCEP, and 4% DMSO. […] Fluorescence was measured on a multimode plate reader (Perkin-Elmer) using a chemiluminescence program after the addition of the detection reagent. IC50 values were determined using a three-parameter log [Inhibitor] versus response model in GraphPad Prism software.

Sequence of FGFR1 (P11362 456-765): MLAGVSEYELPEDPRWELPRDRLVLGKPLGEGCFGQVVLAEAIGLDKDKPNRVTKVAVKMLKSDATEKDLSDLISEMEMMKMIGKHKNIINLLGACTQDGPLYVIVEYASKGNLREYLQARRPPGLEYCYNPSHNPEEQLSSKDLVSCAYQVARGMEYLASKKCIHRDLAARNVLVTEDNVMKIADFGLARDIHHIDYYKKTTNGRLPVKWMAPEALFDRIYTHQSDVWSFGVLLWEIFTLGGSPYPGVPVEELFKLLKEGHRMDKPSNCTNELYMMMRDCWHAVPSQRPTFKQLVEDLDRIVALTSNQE
Sequence of Her4(ERBB4) (Q15303 26-1308): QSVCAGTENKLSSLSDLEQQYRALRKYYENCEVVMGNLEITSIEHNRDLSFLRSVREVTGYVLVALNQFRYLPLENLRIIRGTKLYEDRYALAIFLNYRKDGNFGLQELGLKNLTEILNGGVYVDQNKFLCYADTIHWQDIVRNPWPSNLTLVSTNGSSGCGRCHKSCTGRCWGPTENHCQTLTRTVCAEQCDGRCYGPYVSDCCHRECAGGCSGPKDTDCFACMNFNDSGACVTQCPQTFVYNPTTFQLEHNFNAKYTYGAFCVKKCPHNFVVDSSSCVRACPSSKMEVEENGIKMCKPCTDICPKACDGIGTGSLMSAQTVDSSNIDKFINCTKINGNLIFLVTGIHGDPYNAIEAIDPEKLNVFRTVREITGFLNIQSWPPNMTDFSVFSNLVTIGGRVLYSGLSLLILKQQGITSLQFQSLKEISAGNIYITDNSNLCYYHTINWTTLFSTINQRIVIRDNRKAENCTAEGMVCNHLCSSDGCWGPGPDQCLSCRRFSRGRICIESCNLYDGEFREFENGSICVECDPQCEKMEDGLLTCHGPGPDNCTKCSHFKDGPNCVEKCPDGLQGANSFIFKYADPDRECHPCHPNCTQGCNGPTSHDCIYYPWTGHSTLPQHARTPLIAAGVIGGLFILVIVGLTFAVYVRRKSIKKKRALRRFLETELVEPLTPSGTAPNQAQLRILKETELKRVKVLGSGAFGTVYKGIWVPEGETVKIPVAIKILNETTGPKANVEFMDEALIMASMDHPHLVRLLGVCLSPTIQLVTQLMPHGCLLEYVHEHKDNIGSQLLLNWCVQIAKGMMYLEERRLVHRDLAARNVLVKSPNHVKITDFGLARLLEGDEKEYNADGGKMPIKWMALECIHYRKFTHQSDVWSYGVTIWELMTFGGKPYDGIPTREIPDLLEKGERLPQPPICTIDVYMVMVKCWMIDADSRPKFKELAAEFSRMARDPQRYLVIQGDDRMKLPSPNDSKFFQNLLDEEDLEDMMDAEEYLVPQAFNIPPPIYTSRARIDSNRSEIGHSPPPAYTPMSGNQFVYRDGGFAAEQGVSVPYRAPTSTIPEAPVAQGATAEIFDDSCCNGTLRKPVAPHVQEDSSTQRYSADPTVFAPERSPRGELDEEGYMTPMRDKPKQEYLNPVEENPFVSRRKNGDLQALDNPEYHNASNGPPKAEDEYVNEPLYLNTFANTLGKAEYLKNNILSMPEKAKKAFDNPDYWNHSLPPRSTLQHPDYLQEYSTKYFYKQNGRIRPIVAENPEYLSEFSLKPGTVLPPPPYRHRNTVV
Sequence of FMS (CSF1R) (P07333 20-972): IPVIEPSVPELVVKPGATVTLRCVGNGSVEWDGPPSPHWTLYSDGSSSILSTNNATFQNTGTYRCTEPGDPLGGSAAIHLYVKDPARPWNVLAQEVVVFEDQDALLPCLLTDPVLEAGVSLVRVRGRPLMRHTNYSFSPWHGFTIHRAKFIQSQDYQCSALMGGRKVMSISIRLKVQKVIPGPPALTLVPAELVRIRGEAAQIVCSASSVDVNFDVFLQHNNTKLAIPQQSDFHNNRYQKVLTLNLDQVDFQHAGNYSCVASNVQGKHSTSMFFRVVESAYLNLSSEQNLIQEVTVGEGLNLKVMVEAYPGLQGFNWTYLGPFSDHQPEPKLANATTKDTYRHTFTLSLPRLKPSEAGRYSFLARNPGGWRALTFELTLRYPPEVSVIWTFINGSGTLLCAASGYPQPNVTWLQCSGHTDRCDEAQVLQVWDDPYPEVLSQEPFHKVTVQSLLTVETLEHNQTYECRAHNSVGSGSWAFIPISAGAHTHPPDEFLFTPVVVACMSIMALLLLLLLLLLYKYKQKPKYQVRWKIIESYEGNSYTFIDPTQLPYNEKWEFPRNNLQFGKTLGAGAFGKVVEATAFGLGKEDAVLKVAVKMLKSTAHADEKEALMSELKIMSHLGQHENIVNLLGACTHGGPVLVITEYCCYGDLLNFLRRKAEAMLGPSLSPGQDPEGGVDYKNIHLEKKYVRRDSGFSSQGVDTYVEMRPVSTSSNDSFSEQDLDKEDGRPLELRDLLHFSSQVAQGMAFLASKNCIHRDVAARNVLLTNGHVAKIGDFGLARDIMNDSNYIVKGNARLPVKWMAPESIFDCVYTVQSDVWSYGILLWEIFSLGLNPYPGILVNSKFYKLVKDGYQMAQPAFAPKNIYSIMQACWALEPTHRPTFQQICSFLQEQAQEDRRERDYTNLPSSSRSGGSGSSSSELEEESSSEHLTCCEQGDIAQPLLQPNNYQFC
Sequence of AurA (O14965 whole entry): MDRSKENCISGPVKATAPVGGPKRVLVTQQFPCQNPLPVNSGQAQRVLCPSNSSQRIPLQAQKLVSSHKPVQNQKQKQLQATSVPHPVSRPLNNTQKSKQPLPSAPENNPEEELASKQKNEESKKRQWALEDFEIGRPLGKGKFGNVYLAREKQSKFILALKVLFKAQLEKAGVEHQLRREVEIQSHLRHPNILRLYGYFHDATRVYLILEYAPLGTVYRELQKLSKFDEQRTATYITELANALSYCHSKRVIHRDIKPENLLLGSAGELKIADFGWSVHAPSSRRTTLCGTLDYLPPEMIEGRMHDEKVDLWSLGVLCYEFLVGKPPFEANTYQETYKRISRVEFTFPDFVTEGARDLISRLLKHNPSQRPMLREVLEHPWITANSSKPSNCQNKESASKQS
Sequence of HIPK4 (Q8NE63 whole entry): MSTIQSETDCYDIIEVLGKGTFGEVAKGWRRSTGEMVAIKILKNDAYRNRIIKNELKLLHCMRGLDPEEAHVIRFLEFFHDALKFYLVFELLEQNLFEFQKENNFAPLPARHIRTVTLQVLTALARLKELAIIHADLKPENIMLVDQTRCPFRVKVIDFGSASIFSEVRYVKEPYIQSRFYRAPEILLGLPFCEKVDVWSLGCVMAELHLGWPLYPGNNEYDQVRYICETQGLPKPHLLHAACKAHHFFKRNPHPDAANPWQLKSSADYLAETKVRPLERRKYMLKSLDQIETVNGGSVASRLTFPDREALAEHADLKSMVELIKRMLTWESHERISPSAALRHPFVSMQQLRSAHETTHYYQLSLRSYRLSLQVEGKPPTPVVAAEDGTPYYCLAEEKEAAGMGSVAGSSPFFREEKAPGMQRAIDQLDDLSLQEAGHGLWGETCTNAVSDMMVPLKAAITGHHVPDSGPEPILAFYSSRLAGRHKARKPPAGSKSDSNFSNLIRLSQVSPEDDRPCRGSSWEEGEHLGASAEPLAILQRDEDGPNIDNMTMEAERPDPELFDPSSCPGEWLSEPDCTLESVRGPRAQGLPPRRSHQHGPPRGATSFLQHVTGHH
Sequence of DYRK1B (Q9Y463 whole entry): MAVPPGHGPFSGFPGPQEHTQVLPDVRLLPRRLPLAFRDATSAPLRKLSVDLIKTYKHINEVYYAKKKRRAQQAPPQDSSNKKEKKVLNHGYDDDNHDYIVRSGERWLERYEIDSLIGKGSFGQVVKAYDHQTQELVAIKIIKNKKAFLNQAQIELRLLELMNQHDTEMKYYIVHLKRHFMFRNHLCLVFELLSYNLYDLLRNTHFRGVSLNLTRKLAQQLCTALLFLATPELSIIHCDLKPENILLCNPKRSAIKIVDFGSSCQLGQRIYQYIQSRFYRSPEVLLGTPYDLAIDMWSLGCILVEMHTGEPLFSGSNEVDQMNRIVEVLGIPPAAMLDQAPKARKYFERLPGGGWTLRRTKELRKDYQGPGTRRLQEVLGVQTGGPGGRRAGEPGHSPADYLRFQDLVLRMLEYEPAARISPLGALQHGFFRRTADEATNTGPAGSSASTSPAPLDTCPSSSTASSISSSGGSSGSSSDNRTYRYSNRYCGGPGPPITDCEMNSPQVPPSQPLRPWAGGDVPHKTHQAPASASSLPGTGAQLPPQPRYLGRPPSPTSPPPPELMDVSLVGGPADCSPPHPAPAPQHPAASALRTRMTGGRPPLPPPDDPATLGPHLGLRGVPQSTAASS
Sequence of CLK3 (P49761 whole entry): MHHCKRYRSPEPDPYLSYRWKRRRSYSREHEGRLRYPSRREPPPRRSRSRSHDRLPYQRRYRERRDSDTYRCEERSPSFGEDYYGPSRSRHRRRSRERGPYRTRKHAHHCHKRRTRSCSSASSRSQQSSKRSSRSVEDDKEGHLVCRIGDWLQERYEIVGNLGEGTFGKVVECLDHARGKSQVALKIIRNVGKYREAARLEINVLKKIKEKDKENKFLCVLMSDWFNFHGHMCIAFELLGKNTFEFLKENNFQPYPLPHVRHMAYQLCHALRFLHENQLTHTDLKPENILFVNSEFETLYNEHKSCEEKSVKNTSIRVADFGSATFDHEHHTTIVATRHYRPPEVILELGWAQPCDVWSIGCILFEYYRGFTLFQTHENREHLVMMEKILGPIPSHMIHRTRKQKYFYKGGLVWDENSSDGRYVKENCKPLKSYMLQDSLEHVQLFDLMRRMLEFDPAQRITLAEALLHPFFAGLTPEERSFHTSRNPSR

`C=CC(=O)Nc1ccccc1Nc1ncc2c(n1)N(CCCN1CCN(C(=O)C=C)CC1)C(=O)N(c1cc(OC)cc(OC)c1)C2` [CXF-009] showed an inhibition at 1 µM (FMS (CSF1R)) of 15.4%, an inhibition at 1 µM (AurA) of 15.4% and an inhibition at 1 µM (SYK) of 13.6%. The inhibition at 1 µM (RSK3) was 7.58%, the inhibition at 1 µM (HIPK4) was 2.32% and the inhibition at 1 µM (EPHA1) was 2.15%. The inhibition at 1 µM (TYRO3) was 0.8%, the inhibition at 1 µM (Her4(ERBB4)) was 0.69% and the inhibition at 1 µM (DYRK1B) was 0.62%. It also gave an inhibition at 1 µM (FGFR2) of 0.27%, an inhibition at 1 µM (CLK3) of -0.52% and an inhibition at 1 µM (BRAF) of -0.93%. The inhibition at 1 µM (IGF1R) was -2.13%, the inhibition at 1 µM (LYNa) was -2.53% and the inhibition at 1 µM (HCK) was -11.6%. It also gave an inhibition at 1 µM (TNIK) of -13.4% and an IC50 (FGFR1) of 2580 nM.
